Experimental findings from patent US10550143B2, “C,O-spiro aryl glycoside compounds, preparation therefor and use thereof” (SHANGHAI INSTITUTE OF MATERIA MEDICA, CHINESE ACADEMY OF …, priority 2015, dated 2020) are described below.

The target in this assay is T1, human sodium-glucose cotransporter 2 (SGLT2) (Homo sapiens, UniProt P31639).
T1 construct: expressed in transfected cells; host or cells: NIH3T3 (mouse fibroblast) cells expressing hSGLT2
T1 sequence (P31639 1-672): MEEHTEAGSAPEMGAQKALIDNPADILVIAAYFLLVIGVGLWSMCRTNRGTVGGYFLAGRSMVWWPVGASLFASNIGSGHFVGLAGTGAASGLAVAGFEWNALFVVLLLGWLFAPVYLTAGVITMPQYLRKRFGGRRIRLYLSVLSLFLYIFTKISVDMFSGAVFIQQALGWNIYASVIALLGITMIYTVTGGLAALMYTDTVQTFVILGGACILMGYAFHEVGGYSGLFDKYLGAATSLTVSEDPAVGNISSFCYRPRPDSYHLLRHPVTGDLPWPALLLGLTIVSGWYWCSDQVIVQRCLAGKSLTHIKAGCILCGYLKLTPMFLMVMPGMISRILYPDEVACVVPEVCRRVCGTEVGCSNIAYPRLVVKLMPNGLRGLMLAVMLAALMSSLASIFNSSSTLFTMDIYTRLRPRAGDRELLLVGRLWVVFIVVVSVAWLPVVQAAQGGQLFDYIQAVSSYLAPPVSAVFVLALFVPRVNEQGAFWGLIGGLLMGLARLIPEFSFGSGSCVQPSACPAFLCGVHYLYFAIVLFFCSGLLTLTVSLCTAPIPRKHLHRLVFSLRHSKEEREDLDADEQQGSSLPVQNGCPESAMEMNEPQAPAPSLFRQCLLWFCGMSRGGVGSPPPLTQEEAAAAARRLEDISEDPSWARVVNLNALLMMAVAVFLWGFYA
The experiment in a line: In vitro SGLT2 inhibition, methyl-α-D-[U-14C]glucopyranoside uptake in NIH3T3-hSGLT2 cells. It is filed as cell-based. The settings on record: for inhibition at 0.01 µM: SGLT2, 10 nM, read-out: % Inhibition rate ± SD 10 nM; for inhibition at 0.1 µM: SGLT2, 100 nM, read-out: % Inhibition rate ± SD 100 nM. The procedure:
Inhibition of the compounds of formula I against human sodium-glucose cotransporter 2 (SGLT2) was determined experimentally and the experimental procedures were carried out as reference^1.
Methyl-α-D-[U-^14C] glucopyranoside (Perkin Elmer) Dimethylsulfoxide (Genebase, Prod No: 0231)
(1) Primary screening of hSGLT2 are conducted with two concentrations, 100 nM and 10 nM;
SGLT2 transports D-glucose at 1:1 sodium-glucose ratio, glucose is replaced by the non-metabolic and isotope labeled methyl-aD-[U-^14C] glucopyranoside and methyl-aD-glucopyranoside, and the amount of isotope transferred into the cells was determined.
1) 0.2% gelatin in a 96-well plate was put in a 37° C. incubator for further use;
2) NIH3T3-hSGLT2 cells were injected into 96-well plates, 40000/well, and 100 μL culture medium per well:
3) the fluid was changed in the next day, and sodium butyrate was added into medium at a final concentration of 2 mM;
4) wash the cells with 100 μL of KRH—Na^+ for 3 times and incubate cells with 50 μL for 30 minutes. Cells were changed to 50 μL of compound in KRH—Na^+, uptake buffer (KRH—Na^+ and methyl-α-D-[U-^14C]glucopyranoside and ⅙ mM methyl-α-D-glucopyranoside at 10 μL per well) was added; KRH-acetylcholine solution was used as background control instead of KRH-Na^+
5) washed with 100 μL PBS for 3 times, dried, 50 μL lysate and 150 μL scintillation fluid were added, the membrane was covered and flattened, shaken on a shaker to mix thoroughly, centrifuged at 1500 rpm at 4° C. for 3 min, taken out and read;
6) the results were analyses.
The inhibition rate (% Inhibiton) of each sample at each concentration was calculated by dividing the value of the compound well value minus the background value by the value of the DMSO control well value minus the background value.
IC50 is calculated as follows: […]
The y value is the activity or inhibition percent, the x value is the concentration of the corresponding compound, top (the maximum y value of the curve), bottom (the minimum y value of the curve).

The term inhibition denotes the drop in the measured response relative to a control, in per cent. A word on the IC50: it is the concentration needed to halve the response being measured.

In the case of `Cc1ccc(Cc2ccc3c(c2)[C@]2(OC3)O[C@H](C)[C@@H](O)[C@H](O)[C@H]2O)cc1` [Example A1, (1S,3′R,4′S,5′S,6′R)-6′-methyl-6-(4-methylbenzyl)-3′,4′,5′,6′-tetrahydro-3H-spiro[isobenzofuran-1,2′-pyran]-3′,4′,5′-triol], the inhibition at 0.01 µM was 21.2 ± 14.4% and the inhibition at 0.1 µM was determined as 26.9 ± 9.1%.
Take `CCCc1ccc(Cc2ccc3c(c2)[C@]2(OC3)O[C@H](C)[C@@H](O)[C@H](O)[C@H]2O)cc1` [Example A3, (1S,3′R,4′S,5′S,6′R)-6′-methyl-6-(4-propylbenzyl)-3′,4′,5′,6′-tetrahydro-3H-spiro[isobenzofuran-1,2′-pyran]-3′,4′,5′-triol]: the inhibition at 0.01 µM was determined as 23.1 ± 18.5% and the inhibition at 0.1 µM worked out at 31 ± 9.7%.
As to `CC(C)c1ccc(Cc2ccc3c(c2)[C@]2(OC3)O[C@H](C)[C@@H](O)[C@H](O)[C@H]2O)cc1` [Example A4, (1S,3′R,4′S,5′S,6′R)-6′-methyl-6-(4-isopropylbenzyl)-3′,4′,5′,6′-tetrahydro-3H-spiro[isobenzofuran-1,2′-pyran]-3′,4′,5′-triol], the inhibition at 0.01 µM is 34.1 ± 23.6% and the inhibition at 0.1 µM was determined as 42.2 ± 3.5%.
The corresponding values for `COc1ccc(Cc2ccc3c(c2)[C@]2(OC3)O[C@H](C)[C@@H](O)[C@H](O)[C@H]2O)cc1` [Example A5, (1S,3′R,4′S,5′S,6′R)-6′-methyl-6-(4-methoxybenzyl)-3′,4′,5′,6′-tetrahydro-3H-spiro[isobenzofuran-1,2′-pyran]-3′,4′,5′-triol] are 26 ± 14% and 28.9 ± 7.2%.
Take `CCOc1ccc(Cc2ccc3c(c2)[C@]2(OC3)O[C@H](C)[C@@H](O)[C@H](O)[C@H]2O)cc1` [Example A6, (1S,3′R,4′S,5′S,6′R)-6′-methyl-6-(4-ethyoxylbenzyl)-3′,4′,5′,6′-tetrahydro-3H-spiro[isobenzofuran-1,2′-pyran]-3′,4′,5′-triol]: the inhibition at 0.01 µM came out at 27 ± 15.7% and the inhibition at 0.1 µM was 27.6 ± 3.1%.
The like results for `Cc1ccc(Cc2ccc3c(c2)[C@]2(OC3)O[C@H](C)[C@@H](O)[C@H](O)[C@H]2O)s1` [Example A7, (1S,3′R,4′S,5′S,6′R)-6′-methyl-6-((5-methylthienyl)-2-methyl)-3′,4′,5′,6′-tetrahydro-3H-spiro [isobenzofuran-1,2′-pyran]-3′,4′,5′-triol] were, in that order, 15.7 ± 25.2% and 27.9 ± 1.9%.
On to `CCc1ccc(Cc2ccc3c(c2)[C@]2(OC3)O[C@H](C)[C@@H](O)[C@H](O)[C@H]2O)s1` [Example A8, (1S,3′R,4′S,5′S,6′R)-6′-methyl-6-((5-ethylthienyl)-2-methyl)-3′,4′,5′,6′-tetrahydro-3H-spiro [isobenzofuran-1,2′-pyran]-3′,4′,5′-triol], for which the inhibition at 0.01 µM was 30.4 ± 4.8% and the inhibition at 0.1 µM came out at 59.1 ± 5.3%. Moreover, under “read-out: IC50 ± SD SGLT2”, the IC50 worked out at 285 ± 117 nM.
For `CCCc1ccc(Cc2ccc3c(c2)[C@]2(OC3)O[C@H](C)[C@@H](O)[C@H](O)[C@H]2O)s1` [Example A9, (1S,3′R,4′S,5′S,6′R)-6′-methyl-6-((5-propylthienyl)-2-methyl)-3′,4′,5′,6′-tetrahydro-3H-spiro [isobenzofuran-1,2′-pyran]-3′,4′,5′-triol], the inhibition at 0.01 µM turned out to be 34.7 ± 24% and the inhibition at 0.1 µM came to 52.8 ± 15.5%.
For `C[C@H]1O[C@]2(OCc3ccc(Cc4ccc(Cl)s4)cc32)[C@H](O)[C@@H](O)[C@@H]1O` [Example A10, (1S,3′R,4′S,5′S,6′R)-6′-methyl-6-((5-chlorothienyl)-2-methyl)-3′,4′,5′,6′-tetrahydro-3H-spiro [isobenzofuran-1,2′-pyran]-3′,4′,5′-triol], the inhibition at 0.01 µM turned out to be 28.1 ± 25.8% and the inhibition at 0.1 µM worked out at 45.8 ± 10.2%.
The like results for `C[C@H]1O[C@]2(OCc3ccc(Cc4ccc(-c5ccc(F)cc5)s4)cc32)[C@H](O)[C@@H](O)[C@@H]1O` [Example A11, (1S,3′R,4′S,5′S,6′R)-6′-methyl-6-((5-(4-fluorophenyl)thienyl)-2-methyl)-3′,4′,5′,6′-tetrahydro-3H-spiro[isobenzofuran-1,2′-pyran]-3′,4′,5′-triol] were, in that order, 29.4 ± 11.1% and 31.4 ± 8.1%.
As for `C[C@H]1O[C@]2(OCc3ccc(Cc4ccc(-c5ccccc5)s4)cc32)[C@H](O)[C@@H](O)[C@@H]1O` [Example A12, (1S,3′R,4′S,5′S,6′R)-6′-methyl-6-((5-phenylthienyl)-2-methyl)-3′,4′,5′,6′-tetrahydro-3H-spiro [isobenzofuran-1,2′-pyran]-3′,4′,5′-triol], the inhibition at 0.01 µM stood at 20.4 ± 28.4% and the inhibition at 0.1 µM was 49.1 ± 20%.
For the compound `C[C@H]1O[C@]2(OCc3ccc(Cc4ccc(-c5ccccn5)s4)cc32)[C@H](O)[C@@H](O)[C@@H]1O` [Example A13, (1S,3′R,4′S,5′S,6′R)-6′-methyl-6-((5-(2-pyridyl)thienyl)-2-methyl)-3′,4′,5′,6′-tetrahydro-3H-spiro[isobenzofuran-1,2′-pyran]-3′,4′,5′-triol], the inhibition at 0.01 µM was 31 ± 30.5% and the inhibition at 0.1 µM was found to be 46.9 ± 8.6%.
As to `C[C@H]1O[C@]2(OCc3ccc(Cc4ccc5ccccc5c4)cc32)[C@H](O)[C@@H](O)[C@@H]1O` [Example A14, (1S,3′R,4′S,5′S,6′R)-6′-methyl-6-(naphthyl-2-methyl)-3′,4′,5′,6′-tetrahydro-3H-spiro [isobenzofuran-1,2′-pyran]-3′,4′,5′-triol], the inhibition at 0.01 µM was 25.8 ± 15% and the inhibition at 0.1 µM was 55.8 ± 13.2%.
Take `C[C@H]1O[C@]2(OCc3ccc(Cc4cc5ccccc5s4)cc32)[C@H](O)[C@@H](O)[C@@H]1O` [Example A15, (1S,3′R,4′S,5′S,6′R)-6′-methyl-6-(benzo[b]thiophene-2-methyl)-3′,4′,5′,6′-tetrahydro-3H-spiro[isobenzofuran-1,2′-pyran]-3′,4′,5′-triol]: the inhibition at 0.01 µM came to 46.9 ± 4% and the inhibition at 0.1 µM was 50.8 ± 4.4%.
Turning to `C[C@H]1O[C@]2(OCc3ccc(Cc4cc5ccccc5o4)cc32)[C@H](O)[C@@H](O)[C@@H]1O` [Example A16, (1S,3′R,4′S,5′S,6′R)-6′-methyl-6-(benzo[b]furan-2-methyl)-3′,4′,5′,6′-tetrahydro-3H-spiro [isobenzofuran-1,2′-pyran]-3′,4′,5′-triol], the inhibition at 0.01 µM is 27.5 ± 19.6% and the inhibition at 0.1 µM worked out at 39 ± 16.1%.
Turning to `COc1ccc(Cc2cc3c(cc2Cl)CO[C@]32O[C@H](C)[C@@H](O)[C@H](O)[C@H]2O)cc1` [Example A25, (1S,3′R,4′S,5′S,6′R)-6′-methyl-6-(4-methoxybenzyl)-5-chloro-3′,4′,5′,6′-tetrahydro-3H-spiro[isobenzofuran-1,2′-pyran]-3′,4′,5′-triol], the inhibition at 0.01 µM is 91.8 ± 5.1% and the inhibition at 0.1 µM was 101 ± 2.2%.
Consider `C[C@H]1O[C@]2(OCc3cc(Cl)c(Cc4ccc(-c5ccccn5)s4)cc32)[C@H](O)[C@@H](O)[C@@H]1O` [Example A33], for which the inhibition at 0.01 µM is 25 ± 9.3% and the inhibition at 0.1 µM is 20.7 ± 7.5%.
`C[C@H]1O[C@]2(OCc3cc(F)c(Cc4ccc(-c5ccccn5)s4)cc32)[C@H](O)[C@@H](O)[C@@H]1O` [Example A46, (1S,3′R,4′S,5′S,6′R)-6′-methyl-6-((5-(2-pyridyl)thienyl)-2-methyl)-5-fluoro-3′,4′,5′,6′-tetrahydro-3H-spiro[isobenzofuran-1,2′-pyran]-3′,4′,5′-triol]: the inhibition at 0.01 µM came to 16 ± 14.8% and the inhibition at 0.1 µM is 63.6 ± 2.4%.
Turning to `C[C@H]1O[C@]2(OCc3cc(F)c(Cc4cc5ccccc5s4)cc32)[C@H](O)[C@@H](O)[C@@H]1O` [Example A47, (1S,3′R,4′S,5′S,6′R)-6′-methyl-6-(benzo[b]thiophene-2-methyl)-5-fluoro-3,4′,5′,6′-tetrahydro-3H-spiro [isobenzofuran-1,2′-pyran]-3′,4′,5′-triol], the inhibition at 0.01 µM turned out to be 19.4 ± 0.5% and the inhibition at 0.1 µM turned out to be 50.2 ± 10.8%.
